Values after ≈ are worked out from the molar mass of the structure shown.

The data set is described as follows: Water solubility determination (HPLC). The format is physicochemical. Conditions: thermodynamic from solid, ultra-pure water, room temperature. As to the method: at room tem p eratu re fo r 2 h. After centrifu gation at 3000×g fo r 10 min, the supernatant wa s transferred into a sample vial and dried with Sp ee d vac (Fish er Scientific). So lu ti on s fo r standards were prepared by using a series of different concentrations of ursolic acid (i.e., 0.1, 0.5, 1.0, 2. 0, 5.0 ug /mL in methanol ). Ea c h sample was in jec ted fo r analysis by liq uid chromatography‐tan dem mass spectrometry (UPLC‐MS/MS) with multip le react io n monitor ing (MRM) mode. (2) UPLC‐MS/MS analysis Sa m ples were analyzed wi t h Acquity UPLC syste m (Waters) cou ple d wi t h a Q‐TRAP 6500 mass spectrometer (Sciex). Spe cifically, 5 μL of each sample wa s loaded onto a C18 column (Waters Acquity UPLC BEH C18 1.7μm, 2.1mm x 50 mm). […]
Mass spectra were recorded with Analyst TF 1.6.2 software in th e MRM mode (Q1 mass: 455 Da, Q3 mass:455.1 Da , Time:100 ms, CE: ‐20, DP: ‐50: EP:‐ 7, CXP: ‐12). (3) Data analysis: Data files we re analyzed with quantitated with the “Quantitation Method” in th e An al yst software […]
slid e at a flow ra te of 25 μL/ min wi th 110 s contac t time and 250 s dissociation time. Th e background re s p o ns e was recorded using th e refere nce flow channel, and the background data wa s subtracted from the data fro m each injection sample. […]

The term solubility denotes the dissolved amount per volume that the medium holds. Read a high solubility as a readily soluble substance. The compound `C[C@H]1[C@H](C)CC[C@]2(C(=O)NCC(=O)N(C)CCO)CC[C@]3(C)C(=CC[C@@H]4[C@@]5(C)CC[C@H](O)C(C)(C)[C@@H]5CC[C@]43C)[C@H]12` [UAMMC9] displayed a solubility at 24 h of 39.7 µg/mL (≈ 69.5 µM).

Source of the values: PMC8710297, “Identification of potent SENP1 inhibitors that inactivate SENP1/JAK2/STAT signaling pathway and overcome platinum drug resistance in ovarian cancer” (Clinical and Translational Medicine, 2021).
